Data: US20260285850A1, “SUBSTITUTED OXAZOLIDINONES AND IMIDAZOLINONES AS HERBICIDES” (FMC CORPORATION, priority 2023, published 2026)

Assays:
Type in all cases: in vivo
[1] = tested on: barnyardgrass (Echinochloa crus-galli); assay: Test A preemergence soil spray, visual injury rating 0-100; details: 10 days
Procedure, shortened: (§1)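 Visual injury ratings (0, no effect; 100, complete control) were assigned relative to untreated plants 10 days after treatment. Test chemicals, formulated with a surfactant-containing non-phytotoxic solvent, were applied in loam-sand soil either as a directed soil spray before emergence or to emerged plants, and plants were kept in a greenhouse.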

[2] = tested on: blackgrass (Alopecurus myosuroides); assay: as above; details: 10 days
Procedure, shortened: as §1

corn (Zea mays) [3] = assay: as above; details: 10 days
Procedure, shortened: as §1

[4] = tested on: green foxtail (Setaria viridis); assay: as above; details: 10 days
Procedure, shortened: as §1

kochia (Bassia scoparia) [5] = assay: as above; details: 10 days
Procedure, shortened: as §1

[6] = tested on: oat, wild (wild oat, Avena fatua); assay: as above; details: 10 days
Procedure, shortened: as §1

[7] = tested on: palmer (palmer amaranth, palmer pigweed, Amaranthus palmeri); assay: as above; details: 10 days
Procedure, shortened: as §1

[8] = tested on: ragweed (common ragweed, Ambrosia artemisiifolia); assay: as above; details: 10 days
Procedure, shortened: as §1

[9] = tested on: ryegrass, Italian (italian ryegrass, Lolium multiflorum); assay: as above; details: 10 days
Procedure, shortened: as §1

soybean (Glycine max) [10] = assay: as above; details: 10 days
Procedure, shortened: as §1

[11] = tested on: wheat (Triticum aestivum); assay: as above; details: 10 days
Procedure, shortened: as §1

[12] = tested on: barnyardgrass (Echinochloa crus-galli); assay: Test A postemergence application, visual injury rating 0-100
Procedure, shortened: as §1

[13] = tested on: blackgrass (Alopecurus myosuroides); assay: as above
Procedure, shortened: as §1

corn (Zea mays) [14] = assay: as above
Procedure, shortened: as §1

[15] = tested on: galium (catchweed bedstraw, Galium aparine); assay: as above
Procedure, shortened: as §1

[16] = tested on: green foxtail (Setaria viridis); assay: as above
Procedure, shortened: as §1

[17] = tested on: horseweed (Erigeron canadensis); assay: as above
Procedure, shortened: as §1

kochia (Bassia scoparia) [18] = assay: as above
Procedure, shortened: as §1

[19] = tested on: oat, wild (wild oat, Avena fatua); assay: as above
Procedure, shortened: as §1

[20] = tested on: palmer (palmer amaranth, palmer pigweed, Amaranthus palmeri); assay: as above
Procedure, shortened: as §1

[21] = tested on: ragweed (common ragweed, Ambrosia artemisiifolia); assay: as above
Procedure, shortened: as §1

[22] = tested on: ryegrass, Italian (italian ryegrass, Lolium multiflorum); assay: as above
Procedure, shortened: as §1

soybean (Glycine max) [23] = assay: as above
Procedure, shortened: as §1

[24] = tested on: wheat (Triticum aestivum); assay: as above
Procedure, shortened: as §1

[25] = tested on: barnyardgrass (Echinochloa crusgalli); assay: Test B flooded paddy test, visual plant response rating 0-100; details: 250 g ai/ha, Flood, applied to paddy water, evaluated after 13 days
Procedure, shortened: (§2)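 2-leaf plants; flood 3 cm over soil; compound dosed into paddy water; depth kept constant; greenhouse 13 d; visual scoring vs controls. Dash = no result.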

[26] = tested on: ducksalad (Heteranthera limosa); assay: as above; details: 250 g ai/ha, Flood, applied to paddy water, evaluated after 13 days
Procedure, shortened: as §2

rice (Oryza sativa) = assay: as above; details: 250 g ai/ha, Flood, applied to paddy water, evaluated after 13 days
Procedure, shortened: as §2

[27] = tested on: sedge, umbrella (small-flower umbrella sedge, Cyperus difformis); assay: as above; details: 250 g ai/ha, Flood, applied to paddy water, evaluated after 13 days
Procedure, shortened: as §2

[28] = 62 g ai/ha, 0 = no effect, 100 = complete control
[29] = 62 g ai/ha, postemergence, 10 days, 0 = no effect, 100 = complete control
[30] = Postemergence, 16 g ai/ha, greenhouse 10 days, 0 no effect, 100 complete control

## CC(C)COC(=O)C1=CCC(NC(=O)C2(C)CN(c3cc(F)cc(Cl)c3)C(=O)O2)C1 (stereo not shown) [Compound 143]
[1]; 16 g ai/ha, 0 to 100 scale
  Barnyardgrass plant response rating: 0
[1]; [28]
  Barnyardgrass plant response rating (0-100): 0
[2]; 16 g ai/ha, 0 to 100 scale
  Blackgrass plant response rating: 0
[2]; [28]
  Blackgrass plant response rating (0-100): 0
Corn (Zea mays) [3]; 16 g ai/ha, 0 to 100 scale
  Corn plant response rating: 0
Corn (Zea mays) [3]; [28]
  Corn plant response rating (0-100): 0
[4]; 16 g ai/ha, 0 to 100 scale
  Foxtail, Green plant response rating: 0
[4]; [28]
  Foxtail, Green plant response rating (0-100): 0
Kochia (Bassia scoparia) [5]; 16 g ai/ha, 0 to 100 scale
  Kochia plant response rating: 0
Kochia (Bassia scoparia) [5]; [28]
  Kochia plant response rating (0-100): 0
[6]; 16 g ai/ha, 0 to 100 scale
  Oat, Wild plant response rating: 0
[6]; [28]
  Oat, Wild plant response rating (0-100): 0
[7]; 16 g ai/ha, 0 to 100 scale
  Pigweed, Palmer plant response rating: 0
[7]; [28]
  Pigweed, Palmer plant response rating (0-100): 0
[8]; 16 g ai/ha, 0 to 100 scale
  Ragweed plant response rating: 0
[8]; [28]
  Ragweed plant response rating (0-100): 0
[9]; 16 g ai/ha, 0 to 100 scale
  Ryegrass, Italian plant response rating: 0
[9]; [28]
  Ryegrass, Italian plant response rating (0-100): 0
Soybean (Glycine max) [10]; 16 g ai/ha, 0 to 100 scale
  Soybean plant response rating: 0
Soybean (Glycine max) [10]; [28]
  Soybean plant response rating (0-100): 0
[11]; 16 g ai/ha, 0 to 100 scale
  Wheat plant response rating: 0
[11]; [28]
  Wheat plant response rating (0-100): 0
[12]; [29]
  Barnyardgrass plant response rating (0-100): 0
[12]; [30]
  Barnyardgrass plant response rating (0 to 100 scale): 0
[13]; [29]
  Blackgrass plant response rating (0-100): 0
[13]; [30]
  Blackgrass plant response rating (0 to 100 scale): 0
Corn (Zea mays) [14]; [29]
  Corn plant response rating (0-100): 0
Corn (Zea mays) [14]; [30]
  Corn plant response rating (0 to 100 scale): 0
[15]; [29]
  Galium plant response rating (0-100): 0
[15]; [30]
  Galium plant response rating (0 to 100 scale): 0
[16]; [29]
  Foxtail, Green plant response rating (0-100): 0
[16]; [30]
  Foxtail, Green plant response rating (0 to 100 scale): 0
[17]; [29]
  Horseweed plant response rating (0-100): 0
[17]; [30]
  Horseweed plant response rating (0 to 100 scale): 0
Kochia (Bassia scoparia) [18]; [29]
  Kochia plant response rating (0-100): 0
Kochia (Bassia scoparia) [18]; [30]
  Kochia plant response rating (0 to 100 scale): 0
[19]; [29]
  Oat, Wild plant response rating (0-100): 0
[19]; [30]
  Oat, Wild plant response rating (0 to 100 scale): 0
[20]; [29]
  Pigweed, Palmer plant response rating (0-100): 0
[20]; [30]
  Pigweed, Palmer plant response rating (0 to 100 scale): 0
[21]; [29]
  Ragweed plant response rating (0-100): 0
[21]; [30]
  Ragweed plant response rating (0 to 100 scale): 0
[22]; [29]
  Ryegrass, Italian plant response rating (0-100): 0
[22]; [30]
  Ryegrass, Italian plant response rating (0 to 100 scale): 0
Soybean (Glycine max) [23]; [29]
  Soybean plant response rating (0-100): 0
Soybean (Glycine max) [23]; [30]
  Soybean plant response rating (0 to 100 scale): 0
[24]; [29]
  Wheat plant response rating (0-100): 0
[24]; [30]
  Wheat plant response rating (0 to 100 scale): 0
[25]
  Plant response rating, Barnyardgrass (0 to 100 scale, 0 is no effect and 100 is complete control): 40
[26]
  Plant response rating, Ducksalad (0 to 100 scale, 0 is no effect and 100 is complete control): 60
Rice (Oryza sativa)
  Plant response rating, Rice (0 to 100 scale, 0 is no effect and 100 is complete control): 10
[27]
  Plant response rating, Sedge, Umbrella (0 to 100 scale, 0 is no effect and 100 is complete control): 45
